ChEMBL document CHEMBL4145450, “Colchicine prodrugs and codrugs: Chemistry and bioactivities” (Eur J Med Chem, 2018)

Assay: Displacement of [125I]-ASOR from asialoglycoprotein receptor in mouse parenchymal liver cells after 2 hrs

COc1cc2c(c(OC)c1OC)-c1ccc(OC)c(=O)cc1[C@@H](NC(=O)CCSSCCC(=O)NC(CCCCNC(=O)[C@@H](CCCCNC(=O)CCCCO[C@@H]1O[C@H](CO)[C@H](O)[C@H](O)[C@H]1NC(C)=O)NC(=O)CCCCO[C@@H]1O[C@H](CO)[C@H](O)[C@H](O)[C@H]1NC(C)=O)C(=O)O)CC2 (stereo partly specified) showed a Ki of 4.5 nM.
